Source: a melting point compilation (Tetko et al.; mined from patent text by program, amines drawn as free bases though some values may be those of a salt)

| Structure (SMILES) | melting point |
| --- | --- |
| CC(=NO)c1cnc2c(NC(=O)c3c(Cl)cccc3Cl)cccc2c1 | 215 to 243 °C |
| O=S(=O)(CCCl)CCCS(=O)(=O)CCCl | 142 to 146 °C |
| O=C(O)CC1CCCc2c1n(Cc1ccc(Cl)cc1)c1ccc(F)cc21 (single isomer, unassigned; (-)) | 151 to 152 °C |
| C=CCNC(=S)NNCC1CC2c3cccc4[nH]cc(c34)CC2N(C)C1 (stereo not drawn) | 207 to 208 °C |
| CCc1nc2c(cnn2CC)c(NC2CCOCC2)c1CNC(=O)c1cc(C)cc(C(=O)NCc2cccc(-c3cccc(CC4CCNCC4)c3)c2)c1 | 130 to 132 °C |
| COc1cccc(-c2ccc3ccc(NC(=O)c4cccc(Br)c4)nc3n2)c1 | 104 °C |
| CCCc1csc(/C=C/c2cccc(NCCCC(=O)O)c2)n1 | 115 to 116 °C |
| Cc1nc(NC(=O)c2nnn(Cc3ccc(Cl)c(Cl)c3)c2C)sc1C(=O)O | 263 °C |
| Nc1cc2c(c3ccccc13)C(CCl)CN2C(=O)C(F)(F)F (stereo not drawn) | 177 °C |
| O=C1c2c(O)cccc2OC12CC2 | 100 to 109 °C |
| CCCCN(CCCC)CCCOc1ccc(S(=O)(=O)c2cn[nH]c2C(C)C)cc1 | 53 °C |
| CCCc1nc(C(C)(O)CC)c(C#N)n1Cc1ccc(-c2ccccc2-c2nnn[nH]2)cc1 (stereo not drawn) | 141 to 145 °C |
| Cc1csc2c1c(=O)oc(=O)n2Cc1ccccc1 | 183 °C |
| N#Cc1ccccc1-c1ccc(CNc2cc(Cl)nc3ccnn23)cc1 | 162 to 163 °C |
| CC(C)N1CCN(CCN2CCN(c3cn(-c4ccc(F)cc4)c4cc(Cl)ccc34)CC2)C1=O | 176 to 177 °C |
| O=C1CC(c2cccc(-n3ccnc3)c2)=Nc2ccc(C#Cc3ccc(F)cc3)cc2N1 | 216 to 218 °C |
| CC(C)Oc1ccccc1NC(=O)Nc1ccc2cnccc2n1 | 78 to 80 °C |
| COCCN(C(=O)c1cnc(N2CC(C)(C)NC2=O)nc1N)c1cccc(C(F)(F)F)c1 | 192 to 193 °C |
| CCOc1ccc(-n2c(NCc3ccc(Br)cc3)nc3ccc(Cl)cc32)cc1 | 140 to 141 °C |
| CCCCCCCCCCCCCCCCC#CCBr | 34 to 35 °C |
| CCC1c2cccn2-c2ccccc2N1S(=O)(=O)c1ccc(OC)c(C)c1 (stereo not drawn) | 124 to 126 °C |
| COc1ccccc1C(C)(O)c1ccccc1OC | 122 to 123 °C |
| COc1cc(C(=O)O)nc(-c2cccc([N+](=O)[O-])c2)c1 | 207 to 210 °C |
| CC(C)Cn1nc(-c2ccc(O)cc2O)c2cccc(C(F)(F)F)c21 | 91 to 92 °C |
| Clc1c[nH]nc1-c1cc(Br)cc(Br)c1 | 188 °C |

| Structure (SMILES) | melting point |
| --- | --- |
| CCNc1nc2ccc(CCc3nc4cc(C)ccn4c3C)cc2s1 | 165 to 166 °C |
| CC(=O)Nc1ccc(F)c(F)c1 | 127 to 128 °C |
| O=C1C2CCCC2=Nc2ccccc2N1Cc1cccc([N+](=O)[O-])c1 (stereo not drawn) | 124 to 126 °C |
| COC(=O)C1(CC(N)=O)C(=O)N(C)C(=O)c2ccc(Cl)cc21 (stereo not drawn) | 220 to 222 °C |
| CCOP(=O)(/C=C/c1cn(-c2ccccc2)nc1OCc1ccc(OCc2nc(-c3cccc(O)c3)oc2C)c(OC)c1)OCC | 127 to 128 °C |
| O=C(OCc1ccccc1)N1CCC(c2[nH]c(=O)c3ccccc3c2-c2ccccc2)CC1 | 276 to 278 °C |
| BrCc1ccc(C=Cc2ccccc2)cc1 | 125 to 127 °C |
| OC1(Cc2ccccc2F)CCCCCC1 | 35 to 38 °C |
| N#CNC(=NCC(O)c1cccc(O)c1)NCCSCc1csc(NC(=N)N)n1 (stereo not drawn) | 162 to 164 °C |
| CC1C(=O)CCS1(=O)=O (stereo not drawn) | 83 to 85 °C |
| CS(=O)(=O)c1ccc(C(=O)c2cc(-c3ccc(Cl)cc3)c(N3CCOCC3)s2)cc1 | 242 to 243 °C |
| Clc1ccc2c(c1)N(c1ncnc3ccc(N4CCOCC4)cc13)CC2 | 277 to 279 °C |
| CCOC1CCC(=O)N1S(=O)(=O)c1ccc(N)cc1 (stereo not drawn) | 185 to 186 °C |
| Cc1c(C(=O)O)nc2ccc3c(c2c1-c1ccc2c(c1)OCO2)OCO3 | 219 to 222 °C |
| Cc1ccc(C2=C(c3ccc(S(C)(=O)=O)cc3)CN(C3CC3)C2=O)cc1 | 214 to 216 °C |
| COc1ccccc1CN1CCC(CCC(=O)c2ccc(N3CCCC3)cc2)CC1 | 89 to 91 °C |
| CCCc1nc2c(N)nc3cc(OCCCCCCNC(C)=O)ccc3c2n1CCCCNS(C)(=O)=O | 168 to 172 °C |
| CCCCCCC(C)(C)c1ccc([C@@H]2CC(=O)C[C@@H](O)C2)c(OCc2ccccc2)c1 (relative stereo) | 95 °C |
| CC1(C)CNC(=S)NC1 | 225 to 228 °C |
| CC(=Cc1c[nH]c2ccc3c(c12)CCCO3)[N+](=O)[O-] | 246 to 247 °C |
| CCc1nc2c(N)nc3ccccc3c2n1CCCCSc1ncccn1 | 182 to 185 °C |
| CC(C)CCNC(=O)c1ccc2c(c1)N(C(C)CN(C)C)c1ccccc1S2 (racemic) | 105 °C |
| O=C(c1ccc(F)cc1)c1ccc2n1CCCC2C(=O)O (stereo not drawn) | 161 to 162 °C |
| Oc1c(CN2CCCC2)cc(Nc2ccccn2)cc1CN1CCCC1 | 158 to 159 °C |
| CN1CCN(C(=O)CCC(=O)N[C@@H]2CN3C(=O)N(c4cc(Cl)nc(Cl)c4)C(=O)[C@@]3(Cc3ccc(OC(F)(F)F)cc3)C2)CC1 | 70 °C |

| Structure (SMILES) | melting point |
| --- | --- |
| COc1ccc(-c2ccc(C(C)O)cc2)cc1 (single isomer, unassigned; (+)) | 132 to 133 °C |
| O=C1CC2(CCCC2)CC(=O)N1CCCCN1CCN(C(c2ccc(F)cc2)c2ccc(F)cc2)CC1 | 165 to 169 °C |
| O=C(Nc1ccc(F)cc1)c1ccccc1 | 167 to 168 °C |
| O=c1oc(-c2ccc(-n3ccnc3)c(C(F)(F)F)c2)nn1Cc1cc(Cl)ccc1O | 178 to 180 °C |
| O=C1CCC(c2ccc(OCC3CO3)c3ccccc23)=NN1 (stereo not drawn) | 151 to 155 °C |
| c1ccc2c(c1)Cc1ccccc1N1CCCN=C21 | 139 to 141 °C |
| Cc1nc(N(C)C)sc1C(=O)c1ccc(N)c([N+](=O)[O-])c1 | 225 to 228 °C |
| COc1cc2c(cc1F)CC/C2=C\C#N | 197 to 199 °C |
| COc1ccc2c(-c3ccccn3)noc2c1Cl | 164 to 166 °C |
| COc1ncnc2c(Cl)c(NC3=NCCN3)ccc12 | 238 to 239 °C |
| COc1cc(C=CC(=O)c2ccccc2)cc(C(F)(F)F)c1O | 166 to 168 °C |
| COCCc1c[nH]c(=O)[nH]c1=O | 232 to 234 °C |
| CCOC(=O)Cc1ccc(-c2nc(COc3ccc(CCl)cc3OC)c(C)o2)cc1 | 121 to 122 °C |
| CCCCCNc1nc(SC)[nH]c2nccc1-2 | 134 to 137 °C |
| O=C1C(=O)c2ccccc2C2=C1SCC(CN1CCC(CO)CC1)O2 (stereo not drawn) | 200 to 202 °C |
| COCCOc1ccc(-c2nc(C(=O)Nc3nccs3)c(-c3ccc(Cl)cc3)[nH]2)cc1 | 147 to 148 °C |
| CN1C(=O)CC(C(=O)Nc2ccc(F)cc2)C(=O)c2cc(F)ccc21 (stereo not drawn) | 180 to 182 °C |
| CC(=NOCCO)c1cn(C)c(-c2ccccc2)n1 | 133 to 135 °C |
| c1ccc(Oc2noc(-c3ccccc3)n2)cc1 | 62 °C |
| CC(=O)Oc1cc(OC(C)=O)cc(OC(C)=O)c1 | 105 to 106 °C |
| Cn1cc(C2=CC(=O)NC2=O)c2ccccc21 | 229 to 231 °C |
| O=c1[nH]c2cc(Cl)ccc2c(O)c1Sc1ccccc1 | > 300 °C |
| COc1cc(-c2nn(C)c(C(F)(F)F)c2Br)c(F)cc1N | 85 to 86 °C |
